The record followed here is US20070275984A1, “Novel Thieno-Pyridine and Thieno-Pyrimidine Derivatives and Their Use as Positive Allosteric Modulators of Mglur2-Receptors” (JANSSEN PHARMACEUTICA N.V., priority 2004, published 2007).

Molecules are shown by their SMILES.

The target in one series is T1, native rat mGluR2 (Rattus norvegicus, UniProt P31421).
T1 construct: from tissue; host or cells: cerebral cortex of Sprague-Dawley rats (membrane preparation)
T1 sequence (P31421 19-872): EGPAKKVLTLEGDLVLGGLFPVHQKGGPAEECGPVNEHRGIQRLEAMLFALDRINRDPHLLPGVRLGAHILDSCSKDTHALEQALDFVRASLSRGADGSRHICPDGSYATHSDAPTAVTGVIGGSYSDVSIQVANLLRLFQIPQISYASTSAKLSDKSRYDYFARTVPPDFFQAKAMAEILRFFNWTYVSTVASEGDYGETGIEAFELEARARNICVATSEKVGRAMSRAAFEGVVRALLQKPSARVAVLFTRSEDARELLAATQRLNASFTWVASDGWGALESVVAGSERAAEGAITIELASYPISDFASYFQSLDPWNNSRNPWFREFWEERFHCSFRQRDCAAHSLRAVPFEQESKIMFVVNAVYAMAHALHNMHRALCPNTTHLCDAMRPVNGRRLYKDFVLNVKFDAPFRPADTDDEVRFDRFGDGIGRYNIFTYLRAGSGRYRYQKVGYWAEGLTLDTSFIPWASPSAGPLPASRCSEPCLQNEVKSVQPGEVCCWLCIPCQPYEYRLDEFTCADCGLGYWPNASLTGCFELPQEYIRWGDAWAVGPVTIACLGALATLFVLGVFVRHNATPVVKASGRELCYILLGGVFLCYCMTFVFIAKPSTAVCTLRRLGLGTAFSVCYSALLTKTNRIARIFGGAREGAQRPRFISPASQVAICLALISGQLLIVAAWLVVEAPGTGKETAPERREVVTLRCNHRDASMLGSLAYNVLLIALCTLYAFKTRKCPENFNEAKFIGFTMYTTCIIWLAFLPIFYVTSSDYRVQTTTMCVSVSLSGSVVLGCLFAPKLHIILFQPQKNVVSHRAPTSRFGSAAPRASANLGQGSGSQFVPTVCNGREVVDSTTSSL
The experiment in a line: [35S]GTPγS binding assay using cortical rat brain membranes, potentiation of a selective mGluR2 agonist. It is filed as biochemical. The following applies: rat cortical membranes; selective mGluR2 agonist such as LY379268; in the presence of 3 or 10 μM of positive allosteric modulator. The text has this: The [^35S]GTPγS binding is a functional membrane-based assay used to study G-protein coupled receptor (GPCR) function. This method is using a binding assay to assess the initial step in receptor-mediated G protein activation in membranes prepared from cells expressing recombinant GPCR or using membranes from discrete area of the rat brain. In brief, the assay is measuring the activation of G proteins by catalyzing the exchange of guanosine 5′-diphosphate (GDP) by guanosine 5′-triphosphate (GTP) at the α subunit. The GTP-bounded G proteins dissociate into two subunits, Gα-GTP and Gβγ, which in turn regulate intracellular enzymes and ion channels. GTP is rapidly hydrolysed by the Gα-subunit (GTPases) and the G protein is deactivated and ready for new GTP exchange cycle (Harper (1998) Curr Protoc Pharmacol 2.6.1-10, John Wiley & Sons, Inc.). [^35S]GTPγS, a non-hydrolyzed analogue of GTP, is used for this purpose.
This method is widely used to study receptor activation of G protein in membranes prepared from rat brain tissue, including mGluR2 receptors (Schaffhauser et al 2003, Pinkerton et al, 2004). mGluR2 receptors are expressed in the rat brain cortex (Mutel et al (1998) J. Neurochem. 71:2558-64; Schaffhauser et al (1998) Mol. Pharmacol. 53:228-33) and are coupled to Gαi-protein, a preferential coupling for this method.
[^35S]GTPγS binding assay using cortical rat brain membranes preparation was used and adapted from Schaffhauser et al ((2003) Mol. Pharmacol. 4:798-810) for the detection of the positive allosteric modulator properties of the compounds of this invention on native rat mGluR2. In order to eliminate the possible interference with group III Gαi-protein coupled mGluRs (mGluR4, mGluR7, mGluR8; mGluR6 is not expressed in the cortex (Laurie et al (1997) Neuropharmacol. 36:145-52)), the potentiation of the response to a selective mGluR2 agonist, such as DCG-IV (Cartmell et al. (1998) Br. J. Pharmacol. 123(3):497-504) or LY379268 (Monn et al. (1999) J. Med. Chem 42:1027-40), by compounds described in the present invention was performed.
Membrane preparation. Cortices were dissected out from brains of 200-300 g Sprague-Dawley rats (Charles River Laboratories, L'Arbresle, France). Tissues were homogenized in 6 volumes (vol/wt) of 10% sucrose at 4° C. using a glass-teflon homogenizer. The homogenate was centrifuged at 1250 g for 10 min, and the supernatant was centrifuged at 40,000 g for 20 min (4° C.). The pellet was resuspended in 25 ml water using a Polytron disrupter (Kinematica AG, Luzern, Switzerland) and centrifuged for 10 min at 3000 g. (4° C.). The supernatant was centrifuged at 40,000 g for 20 min (4° C.). The supernatant was discarded and the pellet washed twice by resuspension in 10 volumes 5 mM HEPES-KOH, pH 7.4. The homogenate was frozen and thawed twice and centrifuged at 40,000 g for 20 min. The final pellet was resuspended in 5 mM HEPES-KOH, pH 7.4 and stored at −80° C. before its use. Protein concentration was determined by the Bradford method (Bio-Rad protein assay, Reinach, Switzerland) with bovine serum albumin as standard.
[^35S]GTPγS binding assay. Measurement of mGluR2 positive allosteric modulators properties in rat cortical membranes was performed as follows: rat cortical membrane (1.5 μg) were incubated in 96-well microplates for 15 min at 30° C. in assay buffer (50 mM HEPES pH 7.4, 100 mM NaCl, 5 mM MgCl2, 10 μM GDP, 10 μg/ml saponin, EGTA 0.2 mM) with increasing concentrations of positive allosteric modulator (from 1 nM to 10 μM) and a minimal concentration of DCG-IV or LY379268, a selective mGluR2 agonist, that has been determined in previous experiments and that corresponds to the EC20, a concentration that gives 20% of the maximal response of the agonist, and is in accordance to published data (Pin et al. (1999) Eur. J. Pharmacol. 375:277-294). […]
With `COc1ccc(CCNc2nc(C)nc3sc(Cc4ccccc4)cc23)cc1` [Compound 61, N-(4-methoxyphenethyl)-6-benzyl-2-methylthieno[2,3-d]pyrimidin-4-amine], the “Activity: left-ward shift of agonist mGluR2 concentration-response curve” value was “++ (left-ward shift of agonist mGluR2 concentration-response curve [2- to 3.5-fold])”.

Tested on in a further series: not given
Test: not given
Details: not given
In the case of `CCc1nc(NCCc2cccc(OC)c2)c2cc(C)sc2n1` [Compound 26, N-(3-methoxyphenethyl)-2-ethyl-6-methylthieno[2,3-d]pyrimidin-4-amine], the melting point (commonly the temperature, or range, at which the solid turns liquid) was found to be 83.5 °C.

As for `CCCc1cc2c(NCCc3ccc(OC)c(OC)c3)ncnc2s1` [Compound 87, N-(3,4-dimethoxyphenethyl)-6-propylthieno[2,3-d]pyrimidin-4-amine], the melting point was found to be 128.5 °C. For the compound `CCCc1cc2c(NCCc3ccc(OC)cc3)nc(OC)nc2s1` [Compound 86, N-(4-methoxyphenethyl)-2-methoxy-6-propylthieno[2,3-d]pyrimidin-4-amine], the melting point is 92 °C. The compound `COc1cccc(CNc2nc(C)nc3sc(C)cc23)c1` [Compound 6, N-(3-methoxybenzyl)-2,6-dimethylthieno[2,3-d]pyrimidin-4-amine] showed a melting point of 97 °C. `Cc1ccc(CCNc2nc(C)nc3sc(C)cc23)cc1` [Compound 19, N-(4-methylphenethyl)-2,6-dimethylthieno[2,3-d]pyrimidin-4-amine] displayed a melting point of 115 °C.

Compound `CCCc1cc2c(NCCc3ccc(OC)cc3)ncnc2s1` [Compound 85, N-(4-methoxyphenethyl)-6-propylthieno[2,3-d]pyrimidin-4-amine] displayed a melting point of 102 °C. For the compound `COc1ccc(CCNc2nc(C)nc3sc(C)cc23)cc1OC` [Compound 33, N-(3,4-dimethoxyphenethyl)-2,6-dimethylthieno[2,3-d]pyrimidin-4-amine], the melting point turned out to be 85 °C. Consider `CCc1cc2c(NCCc3ccccc3)ncnc2s1` [Compound 68, 6-ethyl-N-phenethylthieno[2,3-d]pyrimidin-4-amine], for which the melting point was 118 °C. Regarding `Cc1nc(NCCc2ccc(S(C)(=O)=O)cc2)c2cc(C)sc2n1` [Compound 44, N-(4-(methylsulfonyl)phenethyl)-2,6-dimethylthieno[2,3-d]pyrimidin-4-amine], the melting point was in the range of 176 to 179.5 °C. The same measure, in the same setting: for `CCc1nc(NCCc2ccc(OC)c(OC)c2)c2cc(C)sc2n1` [Compound 34, N-(3,4-dimethoxyphenethyl)-2-ethyl-6-methylthieno[2,3-d]pyrimidin-4-amine] the value was 105 °C. For `COc1ccccc1CCNc1nc(C)nc2sc(C)cc12` [Compound 24, N-(2-methoxyphenethyl)-2,6-dimethylthieno[2,3-d]pyrimidin-4-amine], the melting point worked out at 134 °C.

`Cc1nc(NCCc2ccc(F)cc2)c2cc(C)sc2n1` [Compound 41, N-(4-fluorophenethyl)-2,6-dimethylthieno[2,3-d]pyrimidin-4-amine] gave a melting point of 117.2 °C. The compound `CN(C)C(=O)c1cc2c(NCCc3ccccc3)ncnc2s1` [Compound 62, N,N-dimethyl-4-(phenethylamino)thieno[2,3-d]pyrimidine-6-carboxamide] showed a melting point of 157 °C.

On to `CCOc1ccc(CCNc2nc(C)nc3sc(C)cc23)cc1` [Compound 30, N-(4-ethoxyphenethyl)-2,6-dimethylthieno[2,3-d]pyrimidin-4-amine], for which the melting point is 101 to 103 °C.

`COc1cccc(CNc2nc(C)nc3sc(Cc4ccccc4)cc23)c1` [Compound 60, N-(3-methoxybenzyl)-6-benzyl-2-methylthieno[2,3-d]pyrimidin-4-amine] displayed a melting point of 107 °C.

`CCc1cc2c(NCc3ccc(F)cc3)ncnc2s1` [Compound 66, N-(4-fluorobenzyl)-6-ethylthieno[2,3-d]pyrimidin-4-amine] came in with a melting point of 104 °C. On the same count and under the same terms, as for `CCCc1cc2c(NCCNc3ccccc3)ncnc2s1` [Compound 89, N-(2-(phenylamino)ethyl)-6-propylthieno[2,3-d]pyrimidin-4-amine], the figure is 68 °C.

As to `Cc1nc(NCC(=O)c2ccccc2)c2cc(C)sc2n1` [Compound 12, 2-(2,6-dimethylthieno[2,3-d]pyrimidin-4-ylamino)-1-phenylethanone], the melting point was determined as 159 °C. In the case of `COc1ccc(CCNc2ncnc3sc(C)cc23)cc1` [Compound 27, N-(4-methoxyphenethyl)-6-methylthieno[2,3-d]pyrimidin-4-amine], the melting point is 199 °C. `CCc1nc(NCCc2ccccc2)c2ccsc2n1` [Compound 2, 2-ethyl-N-phenethylthieno[2,3-d]pyrimidin-4-amine] came in with a melting point of 89 °C.

`Cc1nc(N2CCc3ccccc3C2)c2cc(C)sc2n1` [Compound 4, 2-(2,6-dimethylthieno[2,3-d]pyrimidin-4-yl)-1,2,3,4-tetrahydroisoquinoline] had a melting point of 105 °C. The same measure, in the same setting: for `CCCc1cc2c(NCCc3ccccc3)nc(NC)nc2s1` [Compound 81, N2-methyl-N4-phenethyl-6-propylthieno[2,3-d]pyrimidine-2,4-diamine] the value was 162 °C; for `CCc1cc2c(NCCc3ccc(OC)c(OC)c3)nc(C)nc2s1` [Compound 73, N-(3,4-dimethoxyphenethyl)-6-ethyl-2-methylthieno[2,3-d]pyrimidin-4-amine], 78 °C. Same read-out and setting: for `COc1cc(CCNc2nc(C)nc3sc(C)cc23)ccc1O` [Compound 31, 4-(2-(2,6-dimethylthieno[2,3-d]pyrimidin-4-ylamino)ethyl)-2-methoxyphenol] the value was 135 °C.

Compound `COc1cccc(CNc2ncnc3sc(C(C)C)cc23)c1` [Compound 91, N-(3-methoxybenzyl)-6-isopropylthieno[2,3-d]pyrimidin-4-amine] gave a melting point of 65 °C. Regarding `COc1ccc(CCNc2ncnc3sc(C(C)C)cc23)cc1` [Compound 93, N-(4-methoxyphenethyl)-6-isopropylthieno[2,3-d]pyrimidin-4-amine], the melting point was 108.5 °C.

For `Cc1nc(NCCc2cccc(C(F)(F)F)c2)c2cc(C)sc2n1` [Compound 21, N-(3-(trifluoromethyl)phenethyl)-2,6-dimethylthieno[2,3-d]pyrimidin-4-amine], the melting point was 98.2 °C. With `Cc1nc(NCCc2ccc(Cl)cc2)c2cc(C)sc2n1` [Compound 38, N-(4-chlorophenethyl)-2,6-dimethylthieno[2,3-d]pyrimidin-4-amine], the melting point was 129 °C.

`COCCCNc1nc(C)nc2sc(C)cc12` [Compound 57, N-(3-methoxypropyl)-2,6-dimethylthieno[2,3-d]pyrimidin-4-amine] registered a melting point of 90 °C. Take `COc1ccc(CCN(C)c2nc(C)nc3sc(C)cc23)cc1` [Compound 51, N-(4-methoxyphenethyl)-N,2,6-trimethylthieno[2,3-d]pyrimidin-4-amine]: the melting point is 81 °C.
